{
  "source": "patent US8841413B2",
  "about": "“Antidiabetic compounds” (Cadila Healthcare Limited, priority 2006, dated 2014)",
  "key": {"[1]": {"target": "DPP IV (Homo sapiens, UniProt P27487)", "sequence (P27487 whole entry, species assumed)": "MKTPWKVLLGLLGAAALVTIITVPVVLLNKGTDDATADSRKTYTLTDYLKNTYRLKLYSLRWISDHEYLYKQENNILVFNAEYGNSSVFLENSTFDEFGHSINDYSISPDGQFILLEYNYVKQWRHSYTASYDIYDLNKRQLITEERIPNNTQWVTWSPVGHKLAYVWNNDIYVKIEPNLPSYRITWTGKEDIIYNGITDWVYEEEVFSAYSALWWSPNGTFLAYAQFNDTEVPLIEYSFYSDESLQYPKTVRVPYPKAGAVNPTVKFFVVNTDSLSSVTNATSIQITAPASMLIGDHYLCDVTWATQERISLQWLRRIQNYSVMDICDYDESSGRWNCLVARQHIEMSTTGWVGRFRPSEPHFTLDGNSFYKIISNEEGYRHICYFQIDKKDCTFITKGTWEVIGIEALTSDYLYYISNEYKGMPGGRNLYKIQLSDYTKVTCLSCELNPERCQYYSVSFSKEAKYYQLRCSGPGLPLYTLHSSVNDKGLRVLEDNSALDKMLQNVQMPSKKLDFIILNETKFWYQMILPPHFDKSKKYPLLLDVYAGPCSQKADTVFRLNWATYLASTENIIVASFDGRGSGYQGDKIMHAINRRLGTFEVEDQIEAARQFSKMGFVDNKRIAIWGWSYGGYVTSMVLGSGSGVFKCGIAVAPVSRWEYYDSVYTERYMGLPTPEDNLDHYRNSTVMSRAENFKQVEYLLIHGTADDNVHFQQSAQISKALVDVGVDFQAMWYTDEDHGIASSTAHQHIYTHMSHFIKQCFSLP", "assay": "Stability against DPP IV enzyme", "format": "in vitro ADME", "conditions": "2 μM, 37° C.", "protocol": "(§1) Reactions were terminated by the addition of TFA/H2O (15 mL, 10% (v/v)). […] The column was equilibrated with TFA/H2O, at a flow rate of 1 mL/min. […] The absorbance was monitored at 206 nm using UV detector and peaks were collected manually prior to ESI-MS analysis."}, "[2]": {"assay": "Stability in simulated intestinal fluid", "format": "in vitro ADME", "conditions": "2 μM, 37° C., pH 7.5", "protocol": "as §1"}, "[3]": {"assay": "Stability in simulated gastric fluid", "format": "in vitro ADME", "conditions": "2 μM, 37° C., pH 1.5, pepsin", "protocol": "as §1"}, "[4]": {"assay": "Stability against liver microsomes", "format": "in vitro ADME, human", "conditions": "2 μM, 37° C.", "protocol": "as §1"}, "[5]": {"target": "T1, Human GLP-1 receptor (Homo sapiens, UniProt P43220)", "T1 construct": "The full-length cDNA was cloned in pcDNA3.1(+); expressed in transfected cells", "T1 sequence (P43220 24-463)": "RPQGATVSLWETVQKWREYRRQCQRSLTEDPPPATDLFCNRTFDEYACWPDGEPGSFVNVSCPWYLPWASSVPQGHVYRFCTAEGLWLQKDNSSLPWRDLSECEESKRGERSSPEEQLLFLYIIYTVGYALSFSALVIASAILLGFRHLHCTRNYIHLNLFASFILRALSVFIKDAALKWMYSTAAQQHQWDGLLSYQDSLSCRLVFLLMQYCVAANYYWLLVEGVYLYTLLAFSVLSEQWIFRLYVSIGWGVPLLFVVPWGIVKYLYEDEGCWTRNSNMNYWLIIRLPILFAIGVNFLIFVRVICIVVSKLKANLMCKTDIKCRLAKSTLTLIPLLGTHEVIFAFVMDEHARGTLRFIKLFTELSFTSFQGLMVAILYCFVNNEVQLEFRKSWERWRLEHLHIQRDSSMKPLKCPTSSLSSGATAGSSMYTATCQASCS", "format": "cell-based", "conditions": "for activity in human GLP-1 receptor assay (in words): in vitro, dipeptides, FIG. 3", "protocol": "The novel peptidomimetics were screened for Human GLP-1 receptor (HGLP-1 R) agonist activity (in vitro), using the cAMP cell-based assay, in stably transfected CHO/human GLP1R cells. […] CHO cells were grown in Ham's F12 medium containing L-Glutamine (2 mM), HEPES (25 mM), NaHCO3 (1.1 g/L) and supplemented with NewBorn Calf Serum (NBCS; 10%), Penicillin (50 U/ml (v/v)) and Streptomycin (50 ug/ml (v/v)). Cells were split every 3 days 1:8.\nThe cDNA encoding the human GLP-1 receptor was isolated by RT-PCR according to standard protocol. The full-length cDNA was cloned in pcDNA3.1(+). […] Clones expressing the receptor were generated by G418 (800 μg/ml active, Sigma) selection. The stable clones were thereafter maintained at 500 ug/ml (G418). The selected clone was used between passages 9-25 for cAMP assays.\nThe trypsin was inactivated using Ham's F12 medium containing 10% NBCS and the cells were suspended in 2 ml of complete medium. […] The medium was aspirated off from the 12 well plate and the cells were washed once using Ham's F12 (plain). […] The cells were incubated with the test compounds for 30 min in humidified atmosphere and 37° C. After the incubation, the medium was removed and cells were washed once with plain Ham's F12. Subsequently, the cells were lysed by adding 500 ul of ice cold 0.1 N HCl to each well and shaking for 30 minutes at 200 rpm. […] The total cAMP was estimated from the sample according to the manufacturer's protocol using Cyclic AMP immunoassay kit (R&D systems, Minneapolis. MN). The remaining supernatant is used to determine the protein concentration using micro BCA (Sigma). Data is calculated as percent of control (Vehicle: water) and expressed as Mean±SD."}, "[6]": {"assay": "Stability in human plasma", "format": "in vitro ADME", "conditions": "2 μM, 37° C.", "protocol": "as §1"}, "[7]": {"target": "T2, human glucagon receptor (Homo sapiens, UniProt P47871)", "T2 construct": "The full-length cDNA was cloned in pcDNA3.1(Invitrogen); expressed in transfected cells", "T2 sequence (P47871 26-477)": "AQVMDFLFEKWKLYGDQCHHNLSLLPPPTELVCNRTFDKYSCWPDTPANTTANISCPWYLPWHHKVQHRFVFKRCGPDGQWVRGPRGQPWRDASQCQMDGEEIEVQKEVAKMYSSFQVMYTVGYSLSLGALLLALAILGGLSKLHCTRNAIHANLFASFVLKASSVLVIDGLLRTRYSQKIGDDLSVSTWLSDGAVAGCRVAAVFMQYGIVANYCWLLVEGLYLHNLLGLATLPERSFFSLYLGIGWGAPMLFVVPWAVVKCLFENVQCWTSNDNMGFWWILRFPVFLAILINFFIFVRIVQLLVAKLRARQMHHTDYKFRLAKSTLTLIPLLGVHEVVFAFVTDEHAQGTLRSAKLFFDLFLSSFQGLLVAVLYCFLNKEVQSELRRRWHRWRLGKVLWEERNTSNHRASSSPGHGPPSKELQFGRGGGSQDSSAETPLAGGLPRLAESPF", "assay": "In vitro human glucagon antagonist activity (inhibition of cAMP production), CHO/human glucagon R cells", "format": "cell-based", "conditions": "in vitro, FIG. 3 / FIG. 4", "protocol": "CHO cells were grown in Ham's F12 medium containing L-Glutamine (2 mM), HEPES (25 mM), NaHCO3 (1.1 g/L) and supplemented with newborn Calf Serum (NBCS; 10%), Penicillin (50 U/ml (v/v)) and Streptomycin (50 ug/ml (v/v)). Cells were split every 3 days 1:8.\nThe full-length cDNA was cloned in pcDNA3.1(Invitrogen). […] Clones expressing the receptor were generated by G418 (800 μg/ml active, Sigma) selection. The stable clones were thereafter maintained at 500 ug/ml (G418). The selected clone was used between passages 9-25 for cAMP assays.\nThe trypsin was inactivated using Ham's F12 medium containing 10% NBCS and the cells were suspended in 2 ml of complete medium. […] The medium was aspirated off from the 12 well plate and the cells were washed once using Ham's F12 (plain). […] After the incubation; the medium was removed and cells were washed once with plain Ham's F12. Subsequently, the cells were lysed by adding 500 ul of ice cold 0.1 N HCl to each well and shaking for 30 minutes at 200 rpm. The cells were then scrapped, the lysate was collected in micro centrifuge tubes and centrifuged at 12000 rpm for 10 min to remove the debris. 300 ul of supernatant from each micro-centrifuge tube was then removed into a glass tube and dried under N2 for 30 min, for cAMP estimation. The total cAMP was estimated from the sample according to the manufacturer's protocol using Cyclic AMP immunoassay kit (R&D systems, Minneapolis: MN). The remaining supernatant is used to determine the protein concentration using micro BCA (Sigma). Data is calculated as percent of control (Vehicle: water) and expressed as Mean+SD."}},
  "note": "Like-named read-outs stand apart in the source and are kept apart here.",
  "data": [
    {"molecule": "CCc1cc(OC)ccc1-c1ccc(CC(NC(=O)[C@H](CC(=O)O)NC(=O)[C@H](CO)NC(=O)[C@@H](NC(=O)[C@H](Cc2ccccc2)NC(=O)[C@@H](NC(=O)CNC(=O)[C@H](CCC(N)=O)NC(=O)C(C)(C)NC(=O)[C@@H](N)Cc2c[nH]cn2)[C@@H](C)O)[C@@H](C)O)C(=O)NC(Cc2ccc(-c3ccccc3C)nc2)C(N)=O)cc1", "note": "(single isomer, unassigned) [compound 14]", "values": [
      {"measurement": "% degradation in 24 h when incubated with DPP-IV enzyme", "setting": "[1]; 24 h", "value": "00", "unit": "%"},
      {"measurement": "half-life", "setting": "[1]; read-out: half-life (t1/2) with DPP-IV enzyme", "value": "> 1440", "unit": "min"},
      {"measurement": "% degradation in 24 h when incubated with simulated intestinal fluid", "setting": "[2]; 24 h", "value": "00", "unit": "%"},
      {"measurement": "half-life", "setting": "[2]; simulated gi fluid, read-out: half-life (t1/2) in simulated intestinal fluid", "value": "> 1440", "unit": "min"},
      {"measurement": "% degradation in 24 h when incubated with simulated gastric fluid", "setting": "[3]; 24 h", "value": 55, "unit": "%"},
      {"measurement": "half-life", "setting": "[3]; simulated gi fluid, read-out: half-life (t1/2) in simulated gastric fluid", "value": 240, "unit": "min"},
      {"measurement": "% degradation in 24 h when incubated with liver microsomes", "setting": "[4]; 24 h", "value": 84, "unit": "%"},
      {"measurement": "half-life", "setting": "[4]; human, microsomes, read-out: half-life (t1/2) with liver microsomes", "value": 120, "unit": "min"},
      {"measurement": "Human GLP-1 R activity (cAMP release), % activity with respect to control", "setting": "[5]; 1 nM test compound", "value": "62 ± 0.11", "unit": "%"},
      {"measurement": "Human GLP-1 R activity (cAMP release), % activity with respect to control", "setting": "[5]; 10 nM test compound", "value": "94 ± 0.09", "unit": "%"},
      {"measurement": "Human GLP-1 R activity (cAMP release), % activity with respect to control", "setting": "[5]; 100 nM test compound", "value": "99 ± 0.06", "unit": "%"},
      {"measurement": "Human GLP-1 R activity (cAMP release), % activity with respect to control", "setting": "[5]; 1 μM test compound", "value": "99 ± 0.14", "unit": "%"},
      {"measurement": "Human GLP-1 R activity (cAMP release), % activity with respect to control", "setting": "[5]; 10 μM test compound", "value": "99 ± 0.19", "unit": "%"},
      {"measurement": "% degradation in 24 h when incubated with human plasma", "setting": "[6]; 24 h", "value": "00", "unit": "%"},
      {"measurement": "half-life", "setting": "[6]; human, plasma, read-out: half-life (t1/2) in human plasma", "value": "> 1440", "unit": "min"}
    ]},
    {"molecule": "Bip(OMe)-Bip(2CF3)", "values": [
      {"measurement": "activity in human Glucagon receptor assay (in words)", "setting": "[7]", "value": "antagonistic activity"},
      {"measurement": "activity in human GLP-1 receptor assay (in words)", "setting": "[5]", "value": "antagonistic activity"}
    ]},
    {"molecule": "Bip(OMe)-Bip(2F)", "values": [
      {"measurement": "activity in human Glucagon receptor assay (in words)", "setting": "[7]", "value": "antagonistic activity"},
      {"measurement": "activity in human GLP-1 receptor assay (in words)", "setting": "[5]", "value": "antagonistic activity"}
    ]},
    {"molecule": "Bip(OMe)-Bip(2Me)", "values": [
      {"measurement": "activity in human Glucagon receptor assay (in words)", "setting": "[7]", "value": "antagonistic activity"},
      {"measurement": "activity in human GLP-1 receptor assay (in words)", "setting": "[5]", "value": "antagonistic activity"}
    ]},
    {"molecule": "Bip(OMe)-Bip(Pyr)", "values": [
      {"measurement": "activity in human Glucagon receptor assay (in words)", "setting": "[7]", "value": "antagonistic activity"},
      {"measurement": "activity in human GLP-1 receptor assay (in words)", "setting": "[5]", "value": "antagonistic activity"}
    ]}
  ]
}
